Data as given in US20260226044A1, “PREPARATION OF AN S1P RECEPTOR MODULATOR” (Oppilan Pharma Limited, priority 2023, published 2026).

Target: T1, human S1P1 (Homo sapiens, UniProt P21453)
T1 construct: CHO-K1 Gαqi5 cells expression full-length human S1P1; expressed in transfected cells; host or cells: CHO-K1 Gαqi5 cells (membranes)
Experiment: GTPγS binding assay (scintillation proximity assay, S1P1 membranes)
Format: biochemical
Settings: membranes from CHO-K1 Gαqi5 cells expressing full-length human S1P1; GTPγ35S; 60 minutes incubation
Protocol: Example 4: GTPyS Binding Assay
S1P1 membrane is prepared from CHO-K1 Gαqi5 cells expression full-length human S1P1. Scintillation proximity assay (SPA) is performed by incubating membranes, GTPγ^35S, and compounds at various concentrations for 60 minutes. Wheat germ agglutinin-coated SPA beads are added and incubated for 60 minutes before centrifugation and scintillation counting.

T1 sequence (P21453 whole entry): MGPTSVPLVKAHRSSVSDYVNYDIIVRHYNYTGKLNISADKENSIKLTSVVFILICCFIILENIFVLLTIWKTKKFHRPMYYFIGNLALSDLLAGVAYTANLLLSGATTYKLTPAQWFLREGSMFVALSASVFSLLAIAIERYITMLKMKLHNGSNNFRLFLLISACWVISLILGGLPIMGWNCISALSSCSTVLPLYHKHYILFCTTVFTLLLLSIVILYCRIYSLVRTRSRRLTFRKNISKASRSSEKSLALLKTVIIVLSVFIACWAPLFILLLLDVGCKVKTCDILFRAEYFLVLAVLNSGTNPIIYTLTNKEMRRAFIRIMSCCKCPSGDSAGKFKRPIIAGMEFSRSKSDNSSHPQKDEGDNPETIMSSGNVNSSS

- EC50: < 1 µM
SMILES: O=C1CC[C@@H](Oc2cc(Cl)c(-c3noc(-c4cn5cc(C(F)(F)F)cc(Cl)c5n4)n3)cc2Cl)CN1 [Compound 1, (R)-5-(2,5-dichloro-4-(5-(8-chloro-6-(trifluoromethyl)imidazo[1,2-a]pyridin-2-yl)-1,2,4-oxadiazol-3-yl)phenoxy)piperidin-2-one]
